Laboratory results from US11673897B2, “Compounds for the treatment of kinase-dependent disorders” (Exelixis, Inc., priority 2018, dated 2023).

Tests used:
Human Axl = Human Axl (Homo sapiens (Human), UniProt P30530, Q764R); assay: Human AXL kinase assay (33P radiometric, KinaseProfiler); format: biochemical; conditions: 10 μM ATP
Protocol: (§1) Kinase activity and compound inhibition were investigated using the ^33P-Phosphoryl transfer radiometric kinase assay, performed using the KinaseProfiler™ service of Eurofins Pharma Discovery Services UK Limited. Dose-response experiments were performed using nine compound concentrations in a 96-well microtiter plate. For each assay, all compounds were prepared to a 50× final assay concentration (50 μM) in 100% DMSO, then diluted in a half-log series, with the final top concentration at 1 μM. This working stock of the compound was added to the assay well as the first component in the reaction, followed by the remaining components as detailed in the following assay protocols below. The positive control wells (100% kinase activity) contain all components of the reaction including 2% DMSO (control for solvent effects), except the compound of interest. Blank wells contain all components of the reaction, with the reference inhibitor, staurosporine. This reference compound was used to abolish kinase activity and generated the 0% kinase activity base-line. IC50 values were calculated by nonlinear regression analysis using the sigmoidal dose-response (variable slope) curve fit on XLFit version 5.3 (ID Business Solutions).
Human Axl (residues H473-A894 with Q764R, 161 nM) was incubated with 8 mM MOPS pH 7.0, 0.2 mM EDTA, 250 μM KKSRGDYMTMQIG (SEQ ID NO. 43), 10 mM magnesium acetate and 10 μM [γ-33P-ATP]. The reaction was initiated by the addition of the Mg/ATP mix. After incubation for 40 minutes at room temperature, the reaction was stopped by the addition of phosphoric acid to a concentration of 0.5%. A reaction aliquot of 10 μL was then spotted onto a P30 filtermat and washed four times for 4 minutes in 0.425% phosphoric acid and once in methanol prior to drying and scintillation counting. Incorporated ^33P was measured using the Wallac Microbeta scintillation counter (Perkin Elmer).

Mer = Mer (Homo sapiens (Human), UniProt Q12866); assay: Human Mer kinase assay (33P radiometric, KinaseProfiler); format: biochemical; conditions: 10 μM ATP
Protocol: as §1
Human Mer (residues R557-E882 with H628Q and R794A, 0.7 nM) was incubated with 8 mM MOPS pH 7.0, 0.2 mM EDTA, 30 mM NaCl, 250 μM GGMEDIYFEFMGGKKK (SEQ ID NO. 44), 10 mM magnesium acetate, and 10 μM [γ-^33P-ATP]. The reaction was initiated by the addition of the Mg/ATP mix. After incubation for 40 minutes at room temperature, the reaction was stopped by the addition of phosphoric acid to a concentration of 0.5%. A reaction aliquot of 10 μL was then spotted onto a P30 filtermat and washed four times for 4 minutes in 0.425% phosphoric acid and once in methanol prior to drying and scintillation counting. Incorporated ^33P was measured using the Wallac Microbeta scintillation counter (Perkin Elmer).

Met = Met (Homo sapiens (Human), UniProt P08581); assay: Human Met kinase assay (33P radiometric, KinaseProfiler); format: biochemical; conditions: 10 μM ATP, read-out: c-Met IC50
Protocol: as §1
Human Met (residues R974-S1390 with A1209G and V1290L, 3.4 nM) was incubated with 8 mM MOPS pH 7.0, 0.2 mM EDTA, 250 μM KKKGQEEEYVFIE (SEQ ID NO. 45), 1 mM sodium orthovanadate, 5 mM […], 10 mM magnesium acetate, and 10 μM [γ-33P-ATP]. The reaction was initiated by the addition of the Mg/ATP mix. After incubation for 40 minutes at room temperature, the reaction was stopped by the addition of phosphoric acid to a concentration of 0.5%. A reaction aliquot of 10 μL was then spotted onto a P30 filtermat and washed four times for 4 minutes in 0.425% phosphoric acid and once in methanol prior to drying and scintillation counting. Incorporated 33P was measured using the Wallac Microbeta scintillation counter (Perkin Elmer).

AXL = AXL (Homo sapiens (Human), UniProt P30530); assay: AXL autophosphorylation ELISA in A-172 cells; format: cell-based; conditions: cellular, Gas6-stimulated, phospho-AXL ELISA
Summary of the method: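 A-172 glioblastoma cells, serum-starved 24 h, took compounds for 1 h (8-point curve, 0.3% DMSO) before 15 min stimulation with 1 μg/mL recombinant human Gas6. Lysate phospho-AXL measured by ELISA against a phospho-AXL standard, normalized to DMSO (100%) and reference inhibitor (0%); IC50 from 4-parameter logistic fit.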

KDR = KDR (Homo sapiens (Human), UniProt P35968); assay: KDR autophosphorylation ELISA in HUVEC cells; format: cell-based; conditions: cellular, VEGF165-stimulated, phospho-KDR ELISA
Summary of the method: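 Compound pretreatment (1 h, 0.3% DMSO) of serum-starved HUVEC preceded a 5 min pulse of 100 ng/mL VEGF165, after which cells were lysed. Phospho-KDR was quantified by ELISA relative to stimulated and unstimulated controls.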

Chain of AXL (P30530 26-894): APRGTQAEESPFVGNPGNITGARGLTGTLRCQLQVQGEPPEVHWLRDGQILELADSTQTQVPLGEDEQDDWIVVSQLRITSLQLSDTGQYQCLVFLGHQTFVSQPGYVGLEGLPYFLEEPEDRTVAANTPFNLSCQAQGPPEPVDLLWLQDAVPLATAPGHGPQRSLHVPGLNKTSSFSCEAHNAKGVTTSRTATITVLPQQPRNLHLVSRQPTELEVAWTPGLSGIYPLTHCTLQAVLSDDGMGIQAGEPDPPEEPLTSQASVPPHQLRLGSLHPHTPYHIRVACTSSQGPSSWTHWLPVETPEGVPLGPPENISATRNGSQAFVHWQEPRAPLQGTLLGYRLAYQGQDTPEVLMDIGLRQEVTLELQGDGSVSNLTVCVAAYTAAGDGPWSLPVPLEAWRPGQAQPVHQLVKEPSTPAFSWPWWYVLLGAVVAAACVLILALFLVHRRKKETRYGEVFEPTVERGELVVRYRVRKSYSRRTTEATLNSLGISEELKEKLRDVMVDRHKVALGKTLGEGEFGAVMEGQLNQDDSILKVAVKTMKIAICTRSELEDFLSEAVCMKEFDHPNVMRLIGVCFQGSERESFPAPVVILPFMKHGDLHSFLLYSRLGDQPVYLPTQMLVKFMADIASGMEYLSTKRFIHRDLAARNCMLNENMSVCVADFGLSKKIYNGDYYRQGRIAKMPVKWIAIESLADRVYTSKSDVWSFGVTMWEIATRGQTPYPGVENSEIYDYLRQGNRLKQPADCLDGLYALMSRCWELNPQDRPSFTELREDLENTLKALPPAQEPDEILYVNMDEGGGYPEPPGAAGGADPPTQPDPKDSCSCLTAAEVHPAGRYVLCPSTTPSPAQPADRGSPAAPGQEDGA
Chain of Human Axl (P30530 473-894 Q764R): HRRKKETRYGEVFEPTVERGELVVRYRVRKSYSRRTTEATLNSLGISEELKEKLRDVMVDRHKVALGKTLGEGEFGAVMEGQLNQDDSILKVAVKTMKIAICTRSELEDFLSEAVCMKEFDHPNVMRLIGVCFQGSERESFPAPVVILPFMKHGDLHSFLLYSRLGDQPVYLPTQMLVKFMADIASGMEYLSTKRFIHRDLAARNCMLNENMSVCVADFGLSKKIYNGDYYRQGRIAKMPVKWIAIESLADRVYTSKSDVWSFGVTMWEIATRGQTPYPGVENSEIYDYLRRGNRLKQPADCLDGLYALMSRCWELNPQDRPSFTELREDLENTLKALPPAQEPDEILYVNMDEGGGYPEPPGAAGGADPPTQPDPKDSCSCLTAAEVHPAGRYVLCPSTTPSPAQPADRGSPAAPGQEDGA
Chain of Mer (Q12866 557-882): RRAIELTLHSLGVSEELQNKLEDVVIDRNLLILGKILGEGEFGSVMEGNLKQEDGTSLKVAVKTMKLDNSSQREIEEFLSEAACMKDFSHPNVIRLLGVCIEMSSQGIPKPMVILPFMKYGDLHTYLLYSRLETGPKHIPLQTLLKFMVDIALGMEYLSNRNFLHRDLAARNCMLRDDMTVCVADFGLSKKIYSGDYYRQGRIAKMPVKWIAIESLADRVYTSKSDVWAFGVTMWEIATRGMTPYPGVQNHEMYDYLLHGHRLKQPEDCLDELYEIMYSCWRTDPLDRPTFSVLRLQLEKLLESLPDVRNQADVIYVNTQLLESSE
Chain of KDR (P35968 20-1356): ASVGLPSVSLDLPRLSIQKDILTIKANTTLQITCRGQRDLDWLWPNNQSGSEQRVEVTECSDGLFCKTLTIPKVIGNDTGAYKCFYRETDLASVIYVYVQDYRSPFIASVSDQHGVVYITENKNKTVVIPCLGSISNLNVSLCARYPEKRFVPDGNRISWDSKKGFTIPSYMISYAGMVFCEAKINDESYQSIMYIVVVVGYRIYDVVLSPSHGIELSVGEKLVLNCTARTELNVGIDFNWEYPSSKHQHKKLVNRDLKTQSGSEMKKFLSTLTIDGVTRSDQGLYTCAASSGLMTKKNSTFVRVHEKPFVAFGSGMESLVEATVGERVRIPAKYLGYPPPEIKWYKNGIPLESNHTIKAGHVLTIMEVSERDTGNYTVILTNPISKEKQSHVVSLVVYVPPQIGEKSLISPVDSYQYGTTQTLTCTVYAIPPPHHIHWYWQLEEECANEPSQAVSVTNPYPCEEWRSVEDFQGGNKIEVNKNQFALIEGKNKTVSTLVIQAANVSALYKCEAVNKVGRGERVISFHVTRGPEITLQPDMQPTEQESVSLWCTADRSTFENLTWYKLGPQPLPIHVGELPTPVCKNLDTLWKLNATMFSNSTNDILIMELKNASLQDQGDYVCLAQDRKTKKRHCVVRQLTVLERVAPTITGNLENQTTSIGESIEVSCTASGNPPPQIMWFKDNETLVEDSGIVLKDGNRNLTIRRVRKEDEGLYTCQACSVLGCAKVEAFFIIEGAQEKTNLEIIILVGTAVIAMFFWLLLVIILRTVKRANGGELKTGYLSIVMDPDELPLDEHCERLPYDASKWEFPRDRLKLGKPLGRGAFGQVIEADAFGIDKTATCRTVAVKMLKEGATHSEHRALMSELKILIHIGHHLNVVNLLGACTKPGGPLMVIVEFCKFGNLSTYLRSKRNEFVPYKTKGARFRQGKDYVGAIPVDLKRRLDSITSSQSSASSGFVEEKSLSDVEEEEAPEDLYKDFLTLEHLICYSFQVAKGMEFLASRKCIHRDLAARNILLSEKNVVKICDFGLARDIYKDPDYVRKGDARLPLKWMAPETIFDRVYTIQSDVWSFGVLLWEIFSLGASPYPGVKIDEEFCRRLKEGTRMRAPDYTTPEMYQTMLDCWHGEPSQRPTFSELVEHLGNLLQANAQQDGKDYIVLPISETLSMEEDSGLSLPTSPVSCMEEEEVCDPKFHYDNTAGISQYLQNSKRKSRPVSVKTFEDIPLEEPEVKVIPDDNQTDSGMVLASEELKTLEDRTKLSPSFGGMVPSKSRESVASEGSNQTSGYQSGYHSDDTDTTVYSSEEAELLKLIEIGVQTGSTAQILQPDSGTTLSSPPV

IC50 (Human Axl): 100 to 1000 nM | IC50 (Mer): 100 to 1000 nM | IC50 (Met): 10 to 100 nM | IC50 (AXL): > 300 nM | IC50 (KDR): > 300 nM
Compound: COc1cc2nccc(Oc3ncc(NC(=O)C4(C(=O)Nc5ccc(F)cc5)CC4)cc3Cl)c2cc1C(=O)O [Compound 14, 4-[3-Chloro-5-[[1-[(4-fluorophenyl)carbamoyl]cyclopropanecarbonyl]amino]pyridin-2-yl]oxy-7-methoxyquinoline-6-carboxylic acid]
